Measured values published in PubChem BioAssay AID330 (DTP/NCI, 2004).
Values joined by “and” are separate entries in the source; they are usually repeats but may differ in a detail not shown here. Equal entries are not always repeated. Toxic doses and inconclusive results are not listed. Rule for the calls: active = survival T/C of 150% or more; inactive = T/C below 125% in these data. Square brackets hold non-standard residues; d marks the D form. Peptide text beside a SMILES is read from it. * marks the point of attachment. ξ: configuration not given here. Nphe = O=C(O)CNCc1ccccc1; Abu = CC[CH](N)C(=O)O; ξL = CC(C)CC(N)C(=O)O; Ms = CS(=O)(=O)*

Test system: P388 leukemia ip, CD2F1 mice, survival T/C
Test: NCI In Vivo Anticancer Drug Screen. Data for tumor model P388 Leukemia (intraperitoneal) in CD2F1 (CDF1) mice
Details: endpoint: median survival time, higher = longer survival
Outline: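 Mice carrying the transplanted tumor received test compound or vehicle. Survival was recorded in each group, and the value is the treated-group measurement divided by that of the vehicle-treated control group.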

[1] = dose: 100.0 mg/kg/injection, schedule: Q01DX005 (ip), vehicle: saline
[2] = dose: 50.0 mg/kg/injection, schedule: Q01DX009 (ip), vehicle: saline with Tween-80
[3] = dose: 100.0 mg/kg/injection, schedule: Q01DX009 (ip), vehicle: saline with Tween-80
[4] = dose: 200.0 mg/kg/injection, schedule: Q01DX009 (ip), vehicle: saline with Tween-80
[5] = dose: 60.0 mg/kg/injection, schedule: Q01DX005 (ip), vehicle: saline with Tween-80
[6] = dose: 50.0 mg/kg/injection, schedule: Q01DX005 (ip), vehicle: saline with Tween-80
[7] = dose: 100.0 mg/kg/injection, schedule: Q01DX005 (ip), vehicle: saline with Tween-80
[8] = dose: 200.0 mg/kg/injection, schedule: Q01DX005 (ip), vehicle: saline with Tween-80
[9] = dose: 12.5 mg/kg/injection, schedule: Q01DX009 (ip), vehicle: other
[10] = dose: 25.0 mg/kg/injection, schedule: Q01DX009 (ip), vehicle: other
[11] = dose: 50.0 mg/kg/injection, schedule: Q01DX009 (ip), vehicle: other
[12] = dose: 100.0 mg/kg/injection, schedule: Q01DX009 (ip), vehicle: other
[13] = dose: 200.0 mg/kg/injection, schedule: Q01DX009 (ip), vehicle: other
[14] = dose: 25.0 mg/kg/injection, schedule: Q01DX009 (ip), vehicle: saline
[15] = dose: 12.5 mg/kg/injection, schedule: Q01DX009 (ip), vehicle: saline with Tween-80
[16] = dose: 50.0 mg/kg/injection, schedule: Q01DX009 (ip), vehicle: Klucel (hydroxypropylcellulose) (HPC)
[17] = dose: 100.0 mg/kg/injection, schedule: Q01DX009 (ip), vehicle: Klucel (hydroxypropylcellulose) (HPC)
[18] = dose: 200.0 mg/kg/injection, schedule: Q01DX009 (ip), vehicle: Klucel (hydroxypropylcellulose) (HPC)
[19] = dose: 100.0 mg/kg/injection, schedule: Q01DX001 (ip), vehicle: saline with Tween-80

Measured: T/C

C1CCN2COCC2C1 (stereo not given)
inactive: dose: 12.5 mg/kg/injection, schedule: Q01DX005 (ip), vehicle: saline 108 % of control | dose: 25.0 mg/kg/injection, schedule: Q01DX005 (ip), vehicle: saline 117 % of control | [1] 120 % of control and 122 % of control

CCCCCCC(=O)/C=C/c1cc(OC)cc(OC)c1
inactive: [2] 96 % of control | [3] 103 % of control | [4] 91 % of control

CCC(N)C(=O)NC(C(N)=O)C(C)C (stereo not given) (H-[Abu]-Val-NH2; configuration not given here)
inactive: dose: 50.0 mg/kg/injection, schedule: Q01DX005 (ip), vehicle: saline 102 % of control | [1] 101 % of control | dose: 200.0 mg/kg/injection, schedule: Q01DX005 (ip), vehicle: saline 104 % of control

Cc1cc(-c2c(C)[nH]n(-c3nc4ccc(F)cc4s3)c2=O)n(-c2nc3ccc(F)cc3s2)n1
inactive: dose: 15.0 mg/kg/injection, schedule: Q01DX005 (ip), vehicle: saline with Tween-80 96 % of control | dose: 30.0 mg/kg/injection, schedule: Q01DX005 (ip), vehicle: saline with Tween-80 95 % of control | [5] 100 % of control and 92 % of control

COc1nc(NC2OCC(OC(C)=O)C(OC(C)=O)C2OC(C)=O)c(N=C(C)C(C)=O)c(=O)n1C (stereo not given)
inactive: [5] 86 % of control | dose: 120.0 mg/kg/injection, schedule: Q01DX005 (ip), vehicle: saline with Tween-80 92 % of control | dose: 240.0 mg/kg/injection, schedule: Q01DX005 (ip), vehicle: saline with Tween-80 94 % of control

O=C(c1ccccc1)C(CC(C(=O)c1ccccc1)c1ccccc1)c1ccccc1 (stereo not given)
inactive: [6] 108 % of control | [7] 96 % of control | [8] 99 % of control

Cc1[nH]c(=O)[nH]c(=O)c1/C=C/C(=O)NC(CO)CSCc1ccccc1 (stereo not given)
inactive: dose: 6.25 mg/kg/injection, schedule: Q01DX009 (ip), vehicle: other 94 % of control | [9] 94 % of control | [10] 94 % of control | [11] 88 % of control | [12] 87 % of control | [13] 98 % of control | dose: 400.0 mg/kg/injection, schedule: Q01DX009 (ip), vehicle: other 95 % of control

O=C(O)CSC(CC(=O)O)C(=O)O (stereo not given)
inactive: [14] 97 % of control | dose: 50.0 mg/kg/injection, schedule: Q01DX009 (ip), vehicle: saline 96 % of control | dose: 100.0 mg/kg/injection, schedule: Q01DX009 (ip), vehicle: saline 100 % of control | dose: 200.0 mg/kg/injection, schedule: Q01DX009 (ip), vehicle: saline 88 % of control

CCOC(=O)C1CCc2ccccc2N1 (stereo not given)
inactive: [6] 99 % of control | [7] 103 % of control | [8] 104 % of control

CC(CNC(=O)CCBr)NC(=O)CCBr (stereo not given)
inactive: dose: 12.5 mg/kg/injection, schedule: Q01DX009 (ip), vehicle: saline 105 % of control | [14] 116 % of control | dose: 400.0 mg/kg/injection, schedule: Q01DX009 (ip), vehicle: suspension in saline 116 % of control

COc1cc[n+](CCc2c[nH]c3ccccc23)cc1
inactive: [15] 109 % of control | dose: 25.0 mg/kg/injection, schedule: Q01DX009 (ip), vehicle: saline with Tween-80 104 % of control | [2] 113 % of control

COc1ccc(N=NNc2ccc(OC)cc2)cc1
inactive: dose: 6.25 mg/kg/injection, schedule: Q01DX009 (ip), vehicle: saline with Tween-80 104 % of control | dose: 6.25 mg/kg/injection, schedule: Q04DX003 (ip), vehicle: saline with Tween-80 95 % of control | [15] 104 % of control | dose: 12.5 mg/kg/injection, schedule: Q04DX003 (ip), vehicle: saline with Tween-80 108 % of control | dose: 25.0 mg/kg/injection, schedule: Q04DX003 (ip), vehicle: saline with Tween-80 116 % of control

CCOC(=O)N=C=S
inactive: [2] 108 % of control | [3] 108 % of control

Cc1nc(C(=O)O)c(C(=O)O)[nH]1
inactive: dose: 100.0 mg/kg/injection, schedule: Q01DX009 (ip), vehicle: saline sonified 90 % of control | dose: 200.0 mg/kg/injection, schedule: Q01DX009 (ip), vehicle: saline sonified 100 % of control

O=S(=O)(c1ccc(NC(=S)NCc2cccnc2)cc1)N1CCCCC1
inactive: [16] 92 % of control | [17] 93 % of control | [18] 95 % of control

CCCCCCC(/C=C/c1ccc(Cl)c(Cl)c1)=N\Nc1c(Cl)cccc1Cl
inactive: [16] 91 % of control | [17] 91 % of control | [18] 87 % of control

O=C(Nc1ccc([N+](=O)[O-])cc1)Nc1ccc([N+](=O)[O-])cc1 (tested in a mixture with another compound)
inactive: [17] 103 % of control | [3] 100 % of control | [18] 117 % of control | [4] 100 % of control | dose: 400.0 mg/kg/injection, schedule: Q01DX009 (ip), vehicle: Klucel (hydroxypropylcellulose) (HPC) 117 % of control | dose: 400.0 mg/kg/injection, schedule: Q01DX009 (ip), vehicle: saline with Tween-80 104 % of control

Cc1ccc(-c2csc3nc(C)c(CN4CCCCC4)c(=O)n23)cc1
inactive: dose: 75.0 mg/kg/injection, schedule: Q04DX002 (ip), vehicle: Klucel (hydroxypropylcellulose) (HPC) 113 % of control | dose: 150.0 mg/kg/injection, schedule: Q04DX002 (ip), vehicle: Klucel (hydroxypropylcellulose) (HPC) 103 % of control | dose: 300.0 mg/kg/injection, schedule: Q04DX002 (ip), vehicle: Klucel (hydroxypropylcellulose) (HPC) 113 % of control

C[N+](C)(C)[N-]C(=N)c1ccccc1
inactive: dose: 25.0 mg/kg/injection, schedule: Q01DX001 (ip), vehicle: suspension in saline 102 % of control | dose: 50.0 mg/kg/injection, schedule: Q01DX001 (ip), vehicle: suspension in saline 104 % of control | dose: 100.0 mg/kg/injection, schedule: Q01DX001 (ip), vehicle: suspension in saline 99 % of control and 110 % of control

NN=C(c1ccc(Br)cc1)c1ccc(Br)cc1
inactive: dose: 25.0 mg/kg/injection, schedule: Q04DX002 (ip), vehicle: saline with Tween-80 100 % of control | dose: 50.0 mg/kg/injection, schedule: Q04DX002 (ip), vehicle: saline with Tween-80 101 % of control | dose: 100.0 mg/kg/injection, schedule: Q04DX002 (ip), vehicle: saline with Tween-80 100 % of control and 105 % of control

CCCCCCCC#CC(=O)OC
inactive: [2] 95 % of control | [3] 101 % of control | [4] 101 % of control

CC(C)CC(NC(=O)CN(Cc1ccccc1)S(C)(=O)=O)C(=O)O (stereo not given) (Ms-[Nphe]-[ξL]-OH)
inactive: [9] 100 % of control | [10] 104 % of control | [11] 114 % of control | [12] 104 % of control | [13] 100 % of control

O=C1CCSC(=S)N1N1CCN(N2C(=O)CCSC2=S)CC1
inactive: dose: 100.0 mg/kg/injection, schedule: Q01DX001 (ip), vehicle: Klucel (hydroxypropylcellulose) (HPC) 102 % of control | dose: 200.0 mg/kg/injection, schedule: Q01DX001 (ip), vehicle: Klucel (hydroxypropylcellulose) (HPC) 93 % of control

CCOC(=O)Nc1c(CC(C)(C)O)n[nH]c1C
inactive: [6] 103 % of control | [7] 100 % of control | [8] 100 % of control

O=S(=O)(/N=C1\c2ccccc2/C(=N\S(=O)(=O)c2ccccc2)C2C3C=CC(C3)C12)c1ccccc1 (stereo not given)
inactive: dose: 25.0 mg/kg/injection, schedule: Q01DX001 (ip), vehicle: saline with Tween-80 115 % of control | dose: 50.0 mg/kg/injection, schedule: Q01DX001 (ip), vehicle: saline with Tween-80 100 % of control | [19] 90 % of control

CS(=O)(=O)OCC(Cc1ccccc1)N1C(=O)c2ccccc2C1=O (stereo not given)
inactive: [19] 101 % of control | dose: 200.0 mg/kg/injection, schedule: Q01DX001 (ip), vehicle: saline with Tween-80 100 % of control | dose: 400.0 mg/kg/injection, schedule: Q01DX001 (ip), vehicle: saline with Tween-80 89 % of control

COC(=O)C(CC=C(C)C)(CC=C(C)C)C(C)=O
inactive: dose: 100.0 mg/kg/injection, schedule: Q04DX002 (ip), vehicle: saline 104 % of control | dose: 200.0 mg/kg/injection, schedule: Q04DX002 (ip), vehicle: saline 100 % of control | dose: 400.0 mg/kg/injection, schedule: Q04DX002 (ip), vehicle: saline 113 % of control
